According to the NIST ThermoML archive (doi:10.1021/acs.jced.7b00107):

Assay: molar heat capacity at constant pressure
Conditions: 101.33 kPa, Crystal 1

Cl.NC12CC3CC(CC(C3)C1)C2 [1-aminoadamantane hydrochloride]
molar heat capacity at constant pressure [J/K/mol]
Conditions | Small (less than 1 g) adiabatic calorimetry | Small sample (50 mg) DSC
196.3 K | 140.9 | –
197.31 K | 141.5 | –
197.81 K | 141.9 | –
199.31 K | 142.8 | –
199.33 K | 142.9 | –
200 K | 143.3 | –
200.81 K | 143.9 | –
201.34 K | 144.3 | –
202.3 K | 144.9 | –
203.36 K | 145.7 | –
203.8 K | 146.1 | –
205.3 K | 147 | –
205.38 K | 147.1 | –
206.8 K | 148 | –
207.4 K | 148.4 | –
208.29 K | 149 | –
209.42 K | 149.8 | –
209.79 K | 150 | –
210 K | 150.2 | –
211.28 K | 151 | –
211.44 K | 151.2 | –
212.77 K | 152.1 | –
213.46 K | 152.6 | –
214.26 K | 153.1 | –
215.49 K | 154.1 | –
215.75 K | 154.2 | –
217.23 K | 155.3 | –
217.51 K | 155.5 | –
218.71 K | 156.2 | –
219.54 K | 156.9 | –
220 K | 157.3 | –
220.19 K | 157.2 | –
221.56 K | 158.4 | –
221.67 K | 158.4 | –
223.43 K | 159.7 | –
223.59 K | 159.8 | –
225.29 K | 161.1 | –
225.62 K | 161.3 | –
227.06 K | 162.3 | –
227.64 K | 162.8 | –
228.83 K | 163.7 | –
229.67 K | 164.3 | –
230 K | 164.5 | –
230.6 K | 165.1 | –
231.7 K | 165.8 | –
232.37 K | 166.3 | –
233.72 K | 167.3 | –
234.13 K | 167.6 | –
235.75 K | 169 | –
235.89 K | 168.9 | –
237.64 K | 170.4 | –
237.78 K | 170.3 | –
239.4 K | 171.9 | –
239.81 K | 172.1 | –
240 K | 171.8 | –
241.15 K | 173.6 | –
241.84 K | 174.1 | –
242.89 K | 174.2 | –
243.87 K | 174.6 | –
244.64 K | 175.3 | –
245.91 K | 176.1 | –
246.38 K | 176.6 | –
247.94 K | 177.7 | –
248.13 K | 177.9 | –
249.87 K | 179.2 | –
249.97 K | 179.2 | –
250 K | 179.3 | –
251.6 K | 180.5 | –
252 K | 180.7 | –
253.34 K | 181.7 | –
254.03 K | 182.2 | –
255.07 K | 183.1 | –
256.06 K | 183.7 | –
256.8 K | 184.4 | –
258.09 K | 185.3 | –
258.52 K | 185.6 | –
260 K | 186.8 | –
260.12 K | 186.8 | –
260.24 K | 186.9 | –
262.15 K | 188.4 | –
264.19 K | 189.9 | –
266.22 K | 191.4 | –
268.25 K | 193.1 | –
270 K | 194.3 | –
270.28 K | 194.5 | –
272.31 K | 196.1 | –
274.35 K | 197.7 | –
276.38 K | 199.3 | –
278.41 K | 200.9 | –
280 K | 202.1 | –
280.44 K | 202.5 | –
282.47 K | 204 | –
284.51 K | 205.6 | –
286.53 K | 207.1 | –
288.56 K | 208.7 | –
290 K | 209.9 | –
290.6 K | 210.3 | –
292.63 K | 211.9 | –
294.66 K | 213.5 | –
296.69 K | 215 | –
298.15 K | 216.2 | –
298.72 K | 216.6 | –
300 K | 217.6 | –
300.75 K | 218.1 | –
302.78 K | 219.8 | –
304.81 K | 221.3 | –
306.84 K | 222.9 | –
308.88 K | 224.5 | –
310 K | 225.3 | 222.6
310.91 K | 226 | –
311.7 K | – | 223.7
312.94 K | 227.6 | –
313.3 K | – | 224.7
314.98 K | 229.1 | –
315 K | – | 226.1
316.6 K | – | 227.2
317.01 K | 230.8 | –
318.2 K | – | 228.5
319.04 K | 232.3 | –
319.9 K | – | 229.5
320 K | 233 | –
321.08 K | 233.9 | –
321.5 K | – | 230.9
323.1 K | – | 231.9
323.11 K | 235.4 | –
324.8 K | – | 233.5
325.15 K | 237 | –
326.4 K | – | 234.8
327.19 K | 238.6 | –
328 K | – | 236
329.23 K | 240.1 | –
329.6 K | – | 237.3
330 K | 240.7 | –
331.2 K | – | 238.4
331.26 K | 241.7 | –
332.8 K | – | 239.6
333.3 K | 243.3 | –
334.4 K | – | 241.2
335.34 K | 244.9 | –
336 K | – | 242.3
337.38 K | 246.5 | –
337.6 K | – | 243.3
339.3 K | – | 244.7
339.42 K | 248.1 | –
340 K | 248.6 | –
340.9 K | – | 246.2
341.46 K | 249.6 | –
342.5 K | – | 247.4
343.5 K | 251.3 | –
344.1 K | – | 248.6
345.54 K | 252.9 | –
345.7 K | – | 249.8
347.2 K | – | 251.1
347.58 K | 254.6 | –
348.8 K | – | 252.4
349.62 K | 256.2 | –
350 K | 256.5 | –
350.4 K | – | 253.7
351.66 K | 257.8 | –
352 K | – | 254.9
353.6 K | – | 256.1
353.7 K | 259.4 | –
355.2 K | – | 257.6
355.74 K | 261.1 | –
356.8 K | – | 259
357.78 K | 262.8 | –
358.4 K | – | 260.3
359.82 K | 264.4 | –
360 K | 264.5 | 261.8
361.6 K | – | 263.1
361.86 K | 266 | –
363.2 K | – | 264.7
363.9 K | 267.5 | –
364.8 K | – | 265.8
365.94 K | 269.3 | –
366.3 K | – | 267.1
367.9 K | – | 268.2
367.98 K | 270.9 | –
369.5 K | – | 269.4
370 K | 272.5 | –
371.1 K | – | 270.6
372.7 K | – | 271.9
374.3 K | – | 273.2
375.9 K | – | 274.4
377.4 K | – | 275.5
379 K | – | 276.5
380 K | – | 280
380.6 K | – | 277.8
382.2 K | – | 279
383.8 K | – | 280.3
385.4 K | – | 281.2
386.9 K | – | 282.7
388.5 K | – | 284.1
390 K | – | 288
390.1 K | – | 285
391.7 K | – | 286.5
393.3 K | – | 287.4
394.9 K | – | 288.7
396.4 K | – | 289.9
398 K | – | 291.3
399.6 K | – | 292.6
400 K | – | 296
401.2 K | – | 293.6
402.8 K | – | 294.7
404.4 K | – | 296.2
405.9 K | – | 297.3
407.5 K | – | 298.6
409.1 K | – | 299.8
410 K | – | 304
410.7 K | – | 301
412.3 K | – | 302.3
413.8 K | – | 303.9
415.4 K | – | 305.3
417 K | – | 306.5
418.6 K | – | 307.7
420 K | – | 312
420.2 K | – | 308.7
421.7 K | – | 309.9
423.3 K | – | 311.5
424.9 K | – | 312.6
426.5 K | – | 313.6
428.1 K | – | 314.7
429.7 K | – | 315.8
430 K | – | 319
431.2 K | – | 317
432.8 K | – | 318.4
434.4 K | – | 319.9
436 K | – | 321
437.6 K | – | 322.3
439.1 K | – | 323.5
440 K | – | 327
440.7 K | – | 324.8
442.3 K | – | 326
443.9 K | – | 326.9
445.5 K | – | 328
447 K | – | 329.5
448.6 K | – | 330.4
450 K | – | 334
450.2 K | – | 331.6
451.8 K | – | 332.9
453.4 K | – | 334.4
454.9 K | – | 335.7
456.5 K | – | 336.7
458.1 K | – | 337.3
459.7 K | – | 338.7
460 K | – | 342
461.3 K | – | 339.3
462.8 K | – | 340.6
464.4 K | – | 341.7
466 K | – | 343
467.6 K | – | 344.1
469.2 K | – | 345
470 K | – | 349
470.7 K | – | 346.4
